16 compounds from patent US20250387400A1, “TYK2 INHIBITORS” (BIOGEN MA INC., priority 2022, published 2025) can be followed below.

Holding throughout (assay type): biochemical
Assay [1] deals with T1, catalytic kinase (JH1) domain of human JAK1 (Homo sapiens, UniProt P23458).
T1 construct: 4 nM of recombinant JAK1 kinase domain is used to phosphorylate
Nature of the assay: ADP-Glo kinase assay, JAK1 kinase domain. As to the method:
(§1) As summarized in Table 3 below, compounds of the disclosure were assessed for their ability to inhibit TYK2, JAK1, JAK2, and JAK3 activity.
(§2) The kinase activity of recombinantly generated catalytic kinase (also known as JH1) domain of human JAK1, JAK2, JAK3 and TYK2 were evaluated in a plate-based assay using the ADP-Glo™ Kinase Assay platform. […] The reactions proceed for 100 minutes and the catalytic activity is quantified by first depleting the unused ATP, converting the hydrolyzed ADP into ATP to generate luminescence in a luciferase reaction; which is the basis of the ADP-Glo platform. Compounds are tested at either 10 μM or 1 μM top concentration, 11 points of 3-fold dilution. The data is normalized and the percent activity versus log concentration of compound is fitted with a 4-parameter logistic model to generate a curve and an IC50 value.
In general terms: ADP-Glo first removes unused ATP, then detects ADP through luciferase.

Assay [2] concerns the target T2, catalytic kinase (JH1) domain of human JAK3 (Homo sapiens, UniProt P52333).
T2 construct: Catalytic activities of recombinant JAK2, JAK3 and TYK2 kinase domain
The assay is described as follows: ADP-Glo kinase assay, JAK3 kinase domain. On the procedure: as §1, §2

In assay [3] the target is T3, catalytic kinase (JH1) domain of human TYK2 (Homo sapiens, UniProt P29597).
T3 construct: recombinantly generated catalytic kinase (also known as JH1) domain of human JAK1, JAK2, JAK3 and TYK2
T3 sequence (P29597 897-1176 limits assumed): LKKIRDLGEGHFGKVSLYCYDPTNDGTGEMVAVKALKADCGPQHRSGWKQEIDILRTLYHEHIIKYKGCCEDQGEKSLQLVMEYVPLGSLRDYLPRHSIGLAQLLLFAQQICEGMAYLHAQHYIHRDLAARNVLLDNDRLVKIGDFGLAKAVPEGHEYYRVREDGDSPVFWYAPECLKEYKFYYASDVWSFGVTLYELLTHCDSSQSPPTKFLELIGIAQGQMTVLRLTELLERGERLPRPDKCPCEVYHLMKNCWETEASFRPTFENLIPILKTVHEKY
Nature of the assay: ADP-Glo kinase assay, TYK2 kinase domain. As to the method: as §1, §2

Assay [4] deals with T4, catalytic kinase (JH1) domain of human JAK2 (Homo sapiens, UniProt O60674).
T4 construct: Catalytic activities of recombinant JAK2, JAK3 and TYK2 kinase domain
The assay is described as follows: ADP-Glo kinase assay, JAK2 kinase domain. As to the method:
as §1, §2

[5] abbreviates: 4 nM recombinant JAK1 kinase domain, 50 μM JAK3-342 peptide, 35 μM ATP, 100 minutes, read-out: JAK1 biochem IC50 (nM) Mean.
Where [6] appears, read: 0.3 nM recombinant JAK3 kinase domain, 50 μM JAK3-974 peptide, 4 μM ATP, 100 minutes, read-out: JAK3 biochem IC50 (nM) Mean.
Setting [7] is: 2 nM recombinant TYK2 kinase domain, 50 μM JAK3-974 peptide, 10 μM ATP, 100 minutes, read-out: TYK2 biochem IC50 (nM) Mean.
Setting [8] is: 0.2 nM recombinant JAK2 kinase domain, 50 μM JAK3-974 peptide, 15 μM ATP, 100 minutes, read-out: JAK2 biochem IC50 (nM) Mean.

Structures can show the parent of a compound that is named as a salt. Where two headings read alike, the source gives them in different places.

T1 sequence (P23458 875-1153 limits assumed): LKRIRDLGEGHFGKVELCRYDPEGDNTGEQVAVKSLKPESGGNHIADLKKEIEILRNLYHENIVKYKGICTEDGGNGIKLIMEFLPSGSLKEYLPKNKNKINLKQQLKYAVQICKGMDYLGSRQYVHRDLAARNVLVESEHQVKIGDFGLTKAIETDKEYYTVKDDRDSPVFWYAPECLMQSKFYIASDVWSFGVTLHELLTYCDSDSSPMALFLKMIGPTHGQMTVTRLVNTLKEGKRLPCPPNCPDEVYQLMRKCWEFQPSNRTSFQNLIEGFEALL
T4 sequence (O60674 849-1124 limits assumed): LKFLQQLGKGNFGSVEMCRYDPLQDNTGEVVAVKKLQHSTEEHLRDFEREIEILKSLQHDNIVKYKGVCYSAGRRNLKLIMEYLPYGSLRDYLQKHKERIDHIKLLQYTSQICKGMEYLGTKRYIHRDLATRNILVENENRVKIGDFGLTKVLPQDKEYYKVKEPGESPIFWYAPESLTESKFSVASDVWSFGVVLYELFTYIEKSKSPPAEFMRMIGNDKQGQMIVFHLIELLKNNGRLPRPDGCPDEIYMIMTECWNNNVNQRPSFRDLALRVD
T2 sequence (P52333 822-1111 limits assumed): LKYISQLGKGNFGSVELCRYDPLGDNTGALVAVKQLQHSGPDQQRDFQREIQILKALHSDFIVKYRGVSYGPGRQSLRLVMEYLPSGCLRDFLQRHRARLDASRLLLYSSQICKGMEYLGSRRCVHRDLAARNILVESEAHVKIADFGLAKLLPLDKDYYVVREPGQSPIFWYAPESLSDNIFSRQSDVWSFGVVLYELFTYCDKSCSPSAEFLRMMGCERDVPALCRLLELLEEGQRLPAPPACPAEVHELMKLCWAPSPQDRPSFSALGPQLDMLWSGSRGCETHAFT

For the compound `Cc1cc(-c2cc3c(N4CC5CCC(C4)N5[C@H]4C[C@@H](C#N)C4)ccnn3c2)on1` [Example 59, (1S,3s)-3-(3-(6-(3-methylisoxazol-5-yl)pyrrolo[1,2-b]pyridazin-4-yl)-3,8-diazabicyclo[3.2.1]octan-8-yl)cyclobutane-1-carbonitrile], the 50% inhibitory concentration (IC50) is 65.5 nM in assay [1], 220 nM in assay [2], 4.25 nM in assay [3] and 26 nM in assay [4].
Turning to `Cn1cc(-c2cc3c(N4CC5CCC(C4)N5[C@H]4CC[C@@H]4O)ccnn3c2)cn1` (racemic) [Example 49, rac-(1S,2S)-2-(3-(6-(1-methyl-1H-pyrazol-4-yl)pyrrolo[1,2-b]pyridazin-4-yl)-3,8-diazabicyclo[3.2.1]octan-8-yl)cyclobutan-1-ol], the IC50 in assay [1] (setting [5]) was above 10000 nM; in assay [2] (setting [6]), above 10000 nM; in assay [3] (setting [7]), 425 nM; in assay [4] (setting [8]), 7700 nM.
`Cn1cc(-c2cc3c(N4CC5CCC(C4)N5C4CCC4)ccnn3c2)cn1` [Example 26, 4-(8-cyclobutyl-3,8-diazabicyclo[3.2.1]octan-3-y1)-6-(1-methyl-1H-pyrazol-4-yl)pyrrolo[1,2-b]pyridazine]: the IC50 was 6100 nM in assay [1], above 10000 nM in assay [2], 195 nM in assay [3] and 3300 nM in assay [4].
As for `COCC[C@]1(C#N)C[C@@H](N2C3CCC2CN(c2ccnn4cc(-c5cnn(C)c5)cc24)C3)C1` [Example 39, (1s,3s)-1-(2-methoxyethyl)-3-(3-(6-(1-methyl-1H-pyrazol-4-yl)pyrrolo[1,2-b]pyridazin-4-yl)-3,8-diazabicyclo[3.2.1]octan-8-yl)cyclobutane-1-carbonitrile], the IC50 in assay [1] (setting [5]) turned out to be 88 nM; in assay [2] (setting [6]), 460 nM; in assay [3] (setting [7]), 6.95 nM; in assay [4] (setting [8]) it was 54 nM.
For the compound `COc1cc(-c2cc3c(N4CC5CCC(C4)N5C4CC(C(F)F)C4)ccnc3[nH]2)ccn1` (stereo not shown) [Example 19, 4-(8-(3-(difluoromethyl)cyclobutyl)-3,8-diazabicyclo[3.2.1]octan-3-yl)-2-(2-methoxypyridin-4-yl)-1H-pyrrolo[2,3-b]pyridine], the IC50 came to 68 nM in assay [1] (setting [5]), 785 nM in assay [2] (setting [6]), 40.5 nM in assay [3] (setting [7]) and 115 nM in assay [4] (setting [8]).
Turning to `COC[C@]1(C#N)C[C@H](N2C3CCC2CN(c2ccnn4cc(-c5cnn(C)c5)cc24)C3)C1` [Example 42, (1s,3s)-1-(methoxymethyl)-3-(3-(6-(1-methyl-1H-pyrazol-4-yl)pyrrolo[1,2-b]pyridazin-4-yl)-3,8-diazabicyclo[3.2.1]octan-8-yl)cyclobutane-1-carbonitrile], the IC50 in assay [1] (setting [5]) was found to be 675 nM; in assay [2] (setting [6]), 2400 nM; in assay [3] (setting [7]) it was 100 nM; in assay [4] (setting [8]) it was 400 nM.
On to `Cn1cc(-c2nc3c(N4CC5CCC(C4)N5[C@H]4C[C@@](C)(C#N)C4)ccnc3[nH]2)cn1` [Example 2, (1S,3s)-1-methyl-3-(3-(2-(1-methyl-1H-pyrazol-4-yl)-3H-imidazo[4,5-b]pyridin-7-yl)-3,8-diazabicyclo[3.2.1]octan-8-yl)cyclobutane-1-carbonitrile], for which the IC50 stood at 14.7 nM in assay [1] (setting [5]), 68 nM in assay [2] (setting [6]), 1.2 nM in assay [3] (setting [7]) and 9 nM in assay [4] (setting [8]).
In the case of `CN1CC(N2C3CCC2CN(c2ccnc4[nH]c(-c5cnn(C)c5)nc24)C3)C1` [Example 12, 2-(1-methyl-1H-pyrazol-4-yl)-7-(8-(1-methylazetidin-3-yl)-3,8-diazabicyclo[3.2.1]octan-3-yl)-3H-imidazo[4,5-b]pyridine trifluoroacetate], the IC50 in assay [1] (setting [5]) was 2850 nM; in assay [2] (setting [6]), above 10000 nM; in assay [3] (setting [7]) it was 580 nM; in assay [4] (setting [8]), 2300 nM.
Take `Cn1cc(-c2cc3c(N4CC5CCC(C4)N5[C@H]4C[C@H](CC#N)C4)ccnn3c2)cn1` [Example 45, 2-((1r,3r)-3-(3-(6-(1-methyl-1H-pyrazol-4-yl)pyrrolo[1,2-b]pyridazin-4-yl)-3,8-diazabicyclo[3.2.1]octan-8-yl)cyclobutyl)acetonitrile]: the IC50 in assay [1] (setting [5]) is 2400 nM; in assay [2] (setting [6]), 9400 nM; in assay [3] (setting [7]) it was 195 nM; in assay [4] (setting [8]), 2700 nM.
Consider `Cn1cc(-c2cc3c(N4CC5CCC(C4)N5[C@@H]4C[C@H](C#N)C4(C)C)ccnn3c2)cn1` (single isomer, unassigned) [Example 48], for which the IC50 in assay [1] was found to be 925 nM; in assay [2], 1350 nM; in assay [3] it was 35 nM; in assay [4], 180 nM.
On to `COCC[C@]1(C#N)C[C@H](N2C3CCC2CN(c2ccnn4cc(-c5cnn(C)c5)cc24)C3)C1` [Example 38, (1r,3r)-1-(2-methoxyethyl)-3-(3-(6-(1-methyl-1H-pyrazol-4-yl)pyrrolo[1,2-b]pyridazin-4-yl)-3,8-diazabicyclo[3.2.1]octan-8-yl)cyclobutane-1-carbonitrile], for which the IC50 in assay [1] (setting [5]) worked out at 1400 nM; in assay [2] (setting [6]) it was 7300 nM; in assay [3] (setting [7]) it was 185 nM; in assay [4] (setting [8]), 1100 nM.
For the compound `COC[C@]1(C#N)C[C@@H](N2C3CCC2CN(c2ccnn4cc(-c5cnn(C)c5)cc24)C3)C1` [Example 43, (1r,3r)-1-(methoxymethyl)-3-(3-(6-(1-methyl-1H-pyrazol-4-yl)pyrrolo[1,2-b]pyridazin-4-yl)-3,8-diazabicyclo[3.2.1]octan-8-yl)cyclobutane-1-carbonitrile], the IC50 was 73 nM in assay [1] (setting [5]), 260 nM in assay [2] (setting [6]), 3.7 nM in assay [3] (setting [7]) and 39 nM in assay [4] (setting [8]).
On to `c1cc(-c2cc3c(N4CC5CCC(C4)N5C4COC4)ccnn3c2)cnn1` [Example 56, 4-(8-(oxetan-3-yl)-3,8-diazabicyclo[3.2.1]octan-3-yl)-6-(pyridazin-4-yl)pyrrolo[1,2-b]pyridazine], for which the IC50 in assay [1] (setting [5]) was 820 nM; in assay [2] (setting [6]), above 10000 nM; in assay [3] (setting [7]), 90 nM; in assay [4] (setting [8]), 950 nM.
Consider `Cn1cc(-c2cc3c(N4CC5CCC(C4)N5[C@H]4CC[C@H]4O)ccnn3c2)cn1` (racemic) [Example 50, rac-(1R,2S)-2-(3-(6-(1-methyl-1H-pyrazol-4-yl)pyrrolo[1,2-b]pyridazin-4-yl)-3,8-diazabicyclo[3.2.1]octan-8-yl)cyclobutan-1-ol], for which the IC50 in assay [1] (setting [5]) was above 10000 nM; in assay [2] (setting [6]) it was above 10000 nM; in assay [3] (setting [7]), 505 nM; in assay [4] (setting [8]), 7350 nM.
As to `Cn1cc(-c2cc3c(N4CC5CCC(C4)N5C4CC(C#N)C4)ccnc3[nH]2)cn1` [Example 17, (1R,3r)-3-(3-(2-(1-methyl-1H-pyrazol-4-yl)-1H-pyrrolo[2,3-b]pyridin-4-yl)-3,8-diazabicyclo[3.2.1]octan-8-yl)cyclobutane-1-carbonitrile], the IC50 is 36.7 nM in assay [1] (setting [5]), 67.7 nM in assay [2] (setting [6]), 2.8 nM in assay [3] (setting [7]) and 20 nM in assay [4] (setting [8]).
Consider `COc1cc(-c2cc3c(N4CC5CCC(C4)N5C4CC(C#N)C4)ccnn3c2)cnn1` (stereo not shown) [Example 54, 3-(3-(6-(6-methoxypyridazin-4-yl)pyrrolo[1,2-b]pyridazin-4-y1)-3,8-diazabicyclo[3.2.1]octan-8-yl)cyclobutane-1-carbonitrile], for which the IC50 in assay [1] (setting [5]) is 420 nM; in assay [2] (setting [6]) it was 1600 nM; in assay [3] (setting [7]), 72 nM; in assay [4] (setting [8]) it was 305 nM.

As usually defined, the IC50 is the concentration that gives 50% inhibition.
